Source: patent US20260265216A1, “NOVEL THIOREDOXIN REDUCTASE INHIBITORS” (GENEXPLAIN GMBH, priority 2021, published 2026)

System: recombinant purified GR
Experiment: GR recombinant enzyme assay in vitro
Format: biochemical
Description: TrxR1 enzyme was recombinantly produced with high Sec contents in a specific Release Factor 1-depleted E. coli strain and purified as previously described (Arnér E S J, Holmgren A, in Current Protocols in Toxicology, Maines M, Costa L, Reed D, Sassa S, Eds. (John Wiley & Sons, Inc., New York, 2000), pp. 7.4.1-7.4.14). TrxR1 and GSR (Sigma) recombinant enzyme assays were performed in a reaction buffer containing 50 mM Tris pH 7.5 with 2 mM EDTA and 0.1 mg/mL bovine serum albumin as described previously (Arnér E S J, Holmgren A, in Current Protocols in Toxicology, Maines M, Costa L, Reed D, Sassa S, Eds. (John Wiley & Sons, Inc., New York, 2000), pp. 7.4.1-7.4.14). Briefly, assays were performed in triplicate using 96-well plates, with activity inferred from absorbance changes using a Spectra Max plate reader. Results of recombinant enzyme assays were normalized to DMSO and to no enzyme controls.
We used recombinant purified TrxR1 and GR in an in vitro assay as described in methods section.

inhibition of GR activity: did not inhibit GR activity
Compound: Cl.N#Cc1c(-c2cccnc2)[n+]([O-])c2cc(F)c(N3CCOCC3)cc2[n+]1[O-] [Compound 1d*HCl, 6-Fluoro-7-(morpholin-4-yl)-3-(pyridin-3-yl)quinoxaline-2-carbonitrile-1,4-dioxide hydrochloride]
